≈ marks a conversion by molar mass, not a printed value.

For the series the following is noted: for solubility: 25 °C.

With `COc1cccc(Cl)c1`, the solubility worked out at 1650 µM (≈ 235 µg/mL).
With `COc1c(Cl)cccc1Cl`, the logP is 3.14 and the solubility came out at 791 µM (≈ 140 µg/mL).
Compound `COc1ccc(Cl)c(Cl)c1Cl` had a solubility of 51.1 µM (≈ 10.8 µg/mL).
`COc1cc(Cl)c(Cl)cc1OC` had a logP of 3.11 and a solubility of 348 µM (≈ 72 µg/mL).
Compound `COc1c(Cl)c(Cl)cc(Cl)c1Cl` yielded a solubility of 7.4 µM (≈ 1.82 µg/mL).
`COc1cccc(Cl)c1Cl` had a logP of 3.24 and a solubility of 491 µM (≈ 86.9 µg/mL).
`COc1cc(Cl)c(Cl)c(Cl)c1Cl` registered a solubility of 5.49 µM (≈ 1.35 µg/mL).
In the case of `COc1cc(Cl)c(Cl)c(Cl)c1OC`, the log partition coefficient (logP) amounted to 4.01 and the solubility turned out to be 42.6 µM (≈ 10.3 µg/mL).
As to `COc1c(Cl)c(Cl)c(Cl)c(Cl)c1OC`, the lipophilicity (logP) was determined as 4.86 and the solubility is 5.76 µM (≈ 1.59 µg/mL).

As usually defined, the solubility is the dissolved amount per volume that the medium holds. Low values mean little dissolved substance, high ones much dissolved substance. As usually defined, the logP is the decadic logarithm of the partition coefficient of the neutral form, usually between octanol and water.

These data come from the OPERA property sets (Mansouri et al. 2018).
